Structures can show the parent of a compound that is named as a salt.
Target: FAAH (Homo sapiens (Human), UniProt O00519)
Test: Assay Method 1: FAAH assay, T84 cell homogenate, 3H-anandamide hydrolysis
Type: biochemical
Conditions: 3H-AEA tracer 200 nM, 1 h at rt
Procedure: T84 frozen pellets (contents of 1-4×15 cm culture dishes) were homogenized in 300 mL of FAAH assay buffer (125 mM Tris, 1 mM EDTA, 0.2% glycerol, 0.02% Triton X-100, 0.4 mM Hepes, pH 9). The assay mixture was prepared from 50 μL of the cell homogenate, 10 μL of the test compound, and 40 μL of anandamide [1-3H-ethanolamine] (^3H-AEA; Perkin-Elmer, 10.3 Ci/mmol), which was added last, for a final tracer concentration of 200 nM. The reaction mixture was incubated at rt for 1 hour (h). During the incubation, 96-well Multiscreen filter plates (catalog number MAFCNOB50; Millipore, Bedford, Mass., USA) were loaded with 25 μL of activated charcoal (Multiscreen column loader, catalog number MACL09625, Millipore) and washed once with 100 μL of MeOH. Also during the incubation, 96-well DYNEX MicroLite plates (catalog number NL510410) were loaded with 100 μL of MicroScint40 (catalog number 6013641, Packard Bioscience, Meriden, Conn., USA). After the 1 h incubation, 60 μL of the reaction mixture were transferred to the charcoal plates, which were then assembled on top of the DYNEX plates using Centrifuge Alignment Frames (catalog number MACF09604, Millipore). The unbound, labeled ethanolamine was centrifuged through to the bottom plate (5 min at 2000 rpm), which was preloaded with the scintillant, as described above. The plates were sealed and left at rt for 1 h before counting on a Hewlett Packard TopCount.

Chain of FAAH (O00519 whole entry): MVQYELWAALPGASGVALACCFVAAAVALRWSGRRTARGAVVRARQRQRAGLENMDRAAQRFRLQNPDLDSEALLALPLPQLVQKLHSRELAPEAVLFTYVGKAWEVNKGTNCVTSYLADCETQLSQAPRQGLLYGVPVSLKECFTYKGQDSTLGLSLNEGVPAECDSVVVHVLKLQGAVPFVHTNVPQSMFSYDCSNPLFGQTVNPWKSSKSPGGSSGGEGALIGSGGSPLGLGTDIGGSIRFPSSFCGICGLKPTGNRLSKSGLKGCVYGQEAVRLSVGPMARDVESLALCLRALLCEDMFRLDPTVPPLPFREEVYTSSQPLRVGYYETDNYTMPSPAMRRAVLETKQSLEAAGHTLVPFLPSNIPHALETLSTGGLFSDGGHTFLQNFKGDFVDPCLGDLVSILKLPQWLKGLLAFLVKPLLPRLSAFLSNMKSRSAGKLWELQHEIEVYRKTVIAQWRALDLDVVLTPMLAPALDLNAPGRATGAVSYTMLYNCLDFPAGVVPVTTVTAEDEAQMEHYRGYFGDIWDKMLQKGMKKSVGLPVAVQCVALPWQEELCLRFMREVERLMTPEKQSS

Compound	IC50 [nM]	other results
O=C(Nc1ccccc1)N1CCN(Cc2cccc(Oc3ccc4c(c3)OCO4)c2)CC1 [Example 136, 4-[3-(Benzo[1,3]dioxol-5-yloxy)-benzyl]-piperazine-1-carboxylic acid phenylamide]	67	–
O=C(Nc1ccccc1)N1CCN(Cc2cccc(S(=O)(=O)c3ccc(Cl)cc3)c2)CC1 [Example 72, 4-[3-(4-Chloro-benzenesulfonyl)-benzyl]-piperazine-1-carboxylic acid phenylamide]	110	–
Cc1cccc2cc(CN3CCN(C(=O)Nc4ccccc4)CC3)c(Cl)nc12 [Example 75, 4-(2-Chloro-8-methyl-quinolin-3-ylmethyl)-piperazine-1-carboxylic acid phenylamide]	24	–
COc1ccc2cc(CN3CCN(C(=O)Nc4ccccc4)CC3)ccc2c1 [Example 66, 4-(6-Methoxy-naphthalen-2-ylmethyl)-piperazine-1-carboxylic acid phenylamide]	1600	–
O=C(Nc1ccccc1)N1CCN(Cc2cccc(Oc3ccccc3)c2)CC1 [Example 28, 4-(3-Phenoxy-benzyl)-piperazine-1-carboxylic acid phenylamide]	80	–
O=C(Nc1ccccc1)N1CCN(Cc2ccc3[nH]ccc3c2)CC1 [Example 43, 4-(1H-Indol-5-ylmethyl)-piperazine-1-carboxylic acid phenylamide]	4000	–
O=C(Nc1ccccc1)N1CCN(Cc2cccc(I)c2)CC1 [Example A, 4-(3-Iodo-benzyl)-piperazine-1-carboxylic acid phenylamide, reference compound]	120	–
O=C(Nc1ccccc1)N1CCN(Cc2cccc(Oc3ccc(Cl)c(Cl)c3)c2)CC1 [Example 61, 4-[3-(3,4-Dichloro-phenoxy)-benzyl]-piperazine-1-carboxylic acid phenylamide]	20	–
O=C(Nc1ccccc1)N1CCN(CCCc2ccccc2)CC1 [Example I, 4-(3-Phenyl-propyl)-piperazine-1-carboxylic acid phenylamide, reference compound]	1700	–
O=C(Nc1ccccc1)N1CCN(Cc2cccc(-c3ccccc3)c2)CC1 [Example 70, 4-Biphenyl-3-ylmethyl-piperazine-1-carboxylic acid phenylamide]	410	–
O=C(Nc1ccccc1)N1CCN(Cc2cccnc2)CC1 [Example 47, 4-Pyridin-3-ylmethyl-piperazine-1-carboxylic acid phenylamide]	> 10000	–
O=C(Nc1ccccc1)N1CCN(Cc2ccc(Oc3ccccc3)cc2)CC1 [Example 74, 4-(4-Phenoxy-benzyl)-piperazine-1-carboxylic acid phenylamide]	2000	–
O=C(Nc1ccccc1)N1CCN(Cc2ccc(OCc3ccccc3)cc2)CC1 [Example 77, 4-(4-Benzyloxy-benzyl)-piperazine-1-carboxylic acid phenylamide]	32	–
O=C(Nc1ccc(Cl)cc1)N1CCN(Cc2cnc3ccccc3c2)CC1 [Example 101, 4-Quinolin-3-ylmethyl-piperazine-1-carboxylic acid (4-chloro-phenyl)-amide]	360	–
O=C(Nc1cccc(F)c1)N1CCN(Cc2ccc(Br)c(Br)c2)CC1 [Example 85, 4-(3,4-Dibromo-benzyl)-piperazine-1-carboxylic acid (3-fluoro-phenyl)-amide]	19	–
O=C(Nc1ccccc1)N1CCN(Cc2cccc(OCCCN3CCCCC3)c2)CC1 [Example 128, 4-[3-(3-Piperidin-1-yl-propoxy)-benzyl]-piperazine-1-carboxylic acid phenylamide]	2000	–
COc1ccccc1NC(=O)N1CCN(Cc2ccc(Br)c(Br)c2)CC1 [Example 91, 4-(3,4-Dibromo-benzyl)-piperazine-1-carboxylic acid (2-methoxy-phenyl)-amide]	130	–
O=C(Nc1ccncc1)N1CCN(Cc2ccc(Br)c(Br)c2)CC1 [Example 116, 4-(3,4-Dibromo-benzyl)-piperazine-1-carboxylic acid pyridin-4-ylamide]	240	–
O=C(Nc1cccc(F)c1)N1CCN(Cc2cnc3ccccc3c2)CC1 [Example 97, 4-Quinolin-3-ylmethyl-piperazine-1-carboxylic acid (3-fluoro-phenyl)-amide]	120	–
CN(C)CCCOc1cccc(CN2CCN(C(=O)Nc3ccccc3)CC2)c1 [Example 127, 4-[3-(3-Dimethylamino-propoxy)-benzyl]-piperazine-1-carboxylic acid phenylamide]	2000	–
Cn1ccc2ccc(CN3CCN(C(=O)Nc4ccccc4)CC3)cc21 [Example 76, 4-(1-Methyl-1H-indol-6-ylmethyl)-piperazine-1-carboxylic acid phenylamide]	350	–

Compound	IC50 [nM]	other results
CC(C)(C)c1ccc(Oc2cccc(CN3CCN(C(=O)Nc4ccccc4)CC3)c2)cc1 [Example 63, 4-[3-(4-tert-Butyl-phenoxy)-benzyl]-piperazine-1-carboxylic acid phenylamide]	69	–
CC(C)Oc1ccc(CN2CCN(C(=O)Nc3ccccc3)CC2)cc1 [Example 48, 4-(4-Isopropoxy-benzyl)-piperazine-1-carboxylic acid phenylamide]	3500	–
COc1ccc(NC(=O)N2CCN(Cc3cnc4ccccc4c3)CC2)cc1 [Example 108, 4-Quinolin-3-ylmethyl-piperazine-1-carboxylic acid (4-methoxy-phenyl)-amide]	270	–
O=C(Nc1ccccc1)N1CCN(Cc2ccc3ccccc3n2)CC1 [Example 163, 4-Quinolin-2-ylmethyl-piperazine-1-carboxylic acid phenylamide dihydrochloride]	–	IC50 (dihydrochloride): 23 nM
O=C(Nc1ccccc1Cl)N1CCN(Cc2cnc3ccccc3c2)CC1 [Example 99, 4-Quinolin-3-ylmethyl-piperazine-1-carboxylic acid (2-chloro-phenyl)-amide]	1600	–
O=C(Nc1ccccc1)N1CCN(Cc2ccc3cccc(Cl)c3n2)CC1 [Example 55, 4-(8-Chloro-quinolin-2-ylmethyl)-piperazine-1-carboxylic acid phenylamide]	28	–
O=C(Nc1ccccc1)N1CCN(Cc2cccc(Oc3cccc(C(F)(F)F)c3)c2)CC1 [Example 64, 4-[3-(3-Trifluoromethyl-phenoxy)-benzyl]-piperazine-1-carboxylic acid phenylamide]	220	–
Cc1ccc(NC(=O)N2CCN(Cc3ccc(Br)c(Br)c3)CC2)cc1 [Example 94, 4-(3,4-Dibromo-benzyl)-piperazine-1-carboxylic acid p-tolylamide]	470	–
O=C(Nc1ccccc1)N1CCN(Cc2cccc(Oc3ccc(Cl)cc3)c2)CC1 [Example 60, 4-[3-(4-Chloro-phenoxy)-benzyl]-piperazine-1-carboxylic acid phenylamide]	9	–
O=C(Nc1ccccc1)N1CCN(Cc2ccc3c(c2)OCCO3)CC1 [Example 35, 4-(2,3-Dihydro-benzo[1,4]dioxin-6-ylmethyl)-piperazine-1-carboxylic acid phenylamide]	460	–
Cc1ccccc1NC(=O)N1CCN(Cc2cnc3ccccc3c2)CC1 [Example 103, 4-Quinolin-3-ylmethyl-piperazine-1-carboxylic acid o-tolylamide]	6000	–
CCCOc1cccc(CN2CCN(C(=O)Nc3ccccc3)CC2)c1 [Example 120, 4-(3-Propoxy-benzyl)-piperazine-1-carboxylic acid phenylamide]	170	–
COc1ccc(NC(=O)N2CCN(Cc3ccc(Br)c(Br)c3)CC2)cc1 [Example 90, 4-(3,4-Dibromo-benzyl)-piperazine-1-carboxylic acid (4-methoxy-phenyl)-amide]	75	–
C=Cc1cccc(CN2CCN(C(=O)Nc3ccccc3)CC2)c1 [Example 37, 4-(3-Vinyl-benzyl)-piperazine-1-carboxylic acid phenylamide]	590	–
O=C(Nc1ccccc1)N1CCN(Cc2cccc(Oc3ccc4ccccc4c3)c2)CC1 [Example 131, 4-[3-(Naphthalen-2-yloxy)-benzyl]-piperazine-1-carboxylic acid phenylamide]	33	–
O=C(Nc1ccccc1)N1CCN(Cc2ccc3c(c2)OCO3)CC1 [Example B1, 4-Benzo[1,3]dioxol-5-ylmethyl-piperazine-1-carboxylic acid phenylamide hydrochloride, reference compound]	–	IC50 (hydrochloride): 1200 nM
O=C(Nc1ccccc1)N1CCN(Cc2cc3ccccc3nc2Cl)CC1 [Example 56, 4-(2-Chloro-quinolin-3-ylmethyl)-piperazine-1-carboxylic acid phenylamide]	9000	–
Cc1ccc(NC(=O)N2CCN(Cc3cnc4ccccc4c3)CC2)cc1 [Example 104, 4-Quinolin-3-ylmethyl-piperazine-1-carboxylic acid p-tolylamide]	690	–
O=C(Nc1ccccc1)N1CCN(Cc2ccc(Cl)c(C(F)(F)F)c2)CC1 [Example 82, 4-(4-Chloro-3-trifluoromethyl-benzyl)-piperazine-1-carboxylic acid phenylamide]	80	–
O=C(Nc1ccccc1)N1CCN(Cc2ccc(I)cc2)CC1 [Example 24, 4-(4-Iodo-benzyl)-piperazine-1-carboxylic acid phenylamide]	52	–

— patent US9169224B2, “Piperazinyl and piperidinyl ureas as modulators of fatty acid amide hydrolase” (Janssen Pharmaceutica NV, priority 2004, dated 2015)
